Reference: patent publication US20120238488A1, “COMPOUNDS AND METHODS FOR TREATING NEOPLASIA” (priority 2009, published 2012)
Where two headings read alike, the source gives them in different places.

How the values were obtained:
[1] = biological target: Na+/K+-ATPase (Adenosine 5′-Triphosphatase isolated from porcine cerebral cortex); experiment: Na+/K+-ATPase inhibitory activity, colorimetric Adenosine 5'-Triphosphatase Enzymatic Assay; assay type: biochemical; conditions: for IC50: read-out: Na+K+ ATPase inhibitory activity IC50
Protocol: The inhibitory effect of a compound of the invention on ATPase activity was assessed in vitro using the colorimetric Adenosine 5′-Triphosphatase Enzymatic Assay of Sigma (St. Louis, Mo.) according to the manufacturer's instructions. This assay utilizes Adenosine 5′-Triphosphatase isolated from porcine cerebral cortex. Each reaction was performed in a final volume of 250 μl using 0.5 units/ml enzyme in the presence of different inhibitors. […] IC50 values were determined using the Origin® program software (OriginLab, Northampton, Mass.).

[2] = tested on: A549 (Lung); experiment: SRB assay, A549; assay type: cell-based, human; conditions: for TGI / GI50: A549, SRB, 48 h; for CC50 / GI50: Homo sapiens; for CC50: A549, 48 h, read-out: LC50
Protocol: (§1) SRB assays were performed according to standard National Cancer Institute Guidelines. Briefly, human tumor cells from different cancer panels were seeded into 96 well plates in 100 μL (plating densities ranging from 5-40,000 cells/well depending on the doubling time of individual cell lines) in serum-containing media for twenty-four hours prior to the addition of the compounds to be assayed. After 24 hours, one plate of each cell line was fixed in situ with trichloroacetic acid (TCA). The fixed slides were used to determine the cell population for each cell line at the time of drug addition (Tz). Each compound to be tested was solubilized in DMSO and the desired concentration was then added to the medium and diluted serially 1:10 to provide a total of five or ten drug concentrations plus control (in a final volume of 200 μL). The starting dose before any dilution was 100 uM for all compounds.
(§2) Following drug addition, each culture was incubated for forty-eight hours. The assay was terminated with the addition of cold TCA. The supernatant was discarded, and the plates were washed with tap water and air dried. Sulforhodamine B (SRB) solution was then added to each well. After staining, the bound stain was solubilized and the absorbance was read on an automated plate reader at a wavelength of 515 nm.
(§3) Using the absorbance measurements [time zero, (Tz), control growth, (C), and test growth in the presence of drug at the ten concentration levels (Ti)], the percentage growth was calculated at each of the drug concentrations levels. Percentage growth inhibition was calculated as:
(§4) [(Ti−Tz)/(C−Tz)]×100 for concentrations for which Ti>/=Tz
(§5) [(Ti−Tz)/Tz]×100 for concentrations for which Ti<Tz.
(§6) Three dose response parameters were calculated for each experimental agent. Growth inhibition of 50% (GI50) was calculated from [(Ti−Tz)/(C−Tz)]×100=50, which was the drug concentration resulting in a 50% reduction in the net protein increase (as measured by SRB staining) in control cells during the drug. The drug concentration resulting in total growth inhibition (TGI) was calculated from Ti=Tz. The LC50 (concentration of drug resulting in a 50% reduction in the measured protein at the end of the drug treatment as compared to that at the beginning) indicating a net loss of cells following treatment was calculated from [(Ti−Tz)/Tz]×100=−50.
(§7) Values were calculated for each of these three parameters when the level of activity was reached; however, if the effect was not reached or was exceeded, the value for that parameter was expressed as greater or less than the maximum or minimum concentration tested.
(§8) Table 4 summarizes results characterizing the effects of compound Nos. 120, 12, 61, 1, and 56 on GI50, which measures the cell growth inhibitory power of the compound, TGI, which measures cytostatic effect (TGI) and LC50, which signifies cytotoxic effect. Each of these parameters in Table 4 was calculated in a sulforhodamine B (SRB) assay, which provides a colorimetric measure of a compound's anti-cancer activity. SRB assays were performed with compounds of the invention in 22 different cell lines (shaded in light gray in Table 4), which represent nine different tumor panels (lung, melanoma, ovary, prostate, CNS, breast, pancreas colon and renal). Ouabain and digoxin were used as controls. Paclitaxel was added as a non-Na^+K^+-ATPase inhibitor control.

[3] = tested on: ERVK (Lung); experiment: SRB assay, ERVK; assay type: cell-based, human; conditions: 48 h; for TGI / GI50: ERVK, SRB; for CC50 / GI50: Homo sapiens; for CC50: read-out: LC50
Protocol: as §1, §2, §3, §4, §5, §6, §7, §8

[4] = tested on: SKMEL28 (Melanoma); experiment: SRB assay, SKMEL28; assay type: cell-based, human; conditions: for CC50 / GI50: Homo sapiens; for CC50: SK-MEL-28, 48 h, read-out: LC50; for GI50: SK-MEL-28; for GI50 / TGI: SKMEL28, SRB, 48 h
Protocol: as §1, §2, §3, §4, §5, §6, §7, §8

[5] = tested on: MB435 (Melanoma); experiment: SRB assay, MB435; assay type: cell-based, human; conditions: 48 h; for CC50 / GI50: Homo sapiens; for CC50: read-out: LC50; for GI50 / TGI: MB435, SRB
Protocol: as §1, §2, §3, §4, §5, §6, §7, §8

[6] = tested on: OVCAR5 (Ovary); experiment: SRB assay, OVCAR5; assay type: cell-based, human; conditions: for CC50 / GI50: Homo sapiens; for CC50: OVCAR-5, 48 h, read-out: LC50; for GI50: OVCAR-5; for GI50 / TGI: OVCAR5, SRB, 48 h
Protocol: as §1, §2, §3, §4, §5, §6, §7, §8

[7] = tested on: OVCAR3 (Ovary); experiment: SRB assay, OVCAR3; assay type: cell-based, human; conditions: for CC50 / GI50: Homo sapiens; for CC50: OVCAR-3, 48 h, read-out: LC50; for GI50: OVCAR-3; for GI50 / TGI: OVCAR3, SRB, 48 h
Protocol: as §1, §2, §3, §4, §5, §6, §7, §8

[8] = tested on: ADRRES (Ovary); experiment: SRB assay, ADRRES (multidrug resistant NCI-ADR-RES); assay type: cell-based, human; conditions: for TGI / GI50: ADRRES; for TGI / CC50 / GI50: 48 h; for CC50 / GI50: Homo sapiens, NCI/ADR-RES; for CC50: read-out: LC50
Protocol: NCI-ADR-RES cells have been classified as ovarian cancer cells by the National Cancer Institute.
as §1, §2, §3, §4, §5, §6, §7, §8
Table 4 also presents results with Compound Nos. 120, 12, 61, 1, and 56 in a well characterized drug resistant cell line, NCI-ADR-RES, that expresses high levels of MDR1 and P-glycoprotein.

[9] = tested on: DU145 (Prostate); experiment: SRB assay, DU145; assay type: cell-based, human; conditions: for TGI / GI50: DU145, SRB, 48 h; for CC50 / GI50: Homo sapiens; for CC50: DU-145, 48 h, read-out: LC50; for GI50: DU-145
Protocol: as §1, §2, §3, §4, §5, §6, §7, §8

[10] = tested on: PCJ (Prostate); experiment: SRB assay, PCJ; assay type: cell-based; conditions: Homo sapiens, 48 h; for CC50: read-out: LC50; for GI50 / IC (TGI): PCJ, SRB
Protocol: as §1, §2, §3, §4, §5, §6, §7, §8

[11] = tested on: SF268 (CNS); experiment: SRB assay, SF268; assay type: cell-based; conditions: Homo sapiens; for CC50: read-out: LC50; for IC (TGI): read-out: TGI
Protocol: as §1, §2, §3, §4, §5, §6, §7, §8

[12] = tested on: HCT116 (Colon); experiment: SRB assay, HCT116; assay type: cell-based; conditions: Homo sapiens; for CC50: HCT-116, 48 h, read-out: LC50; for GI50 / IC (TGI): HCT-116, HCT116, SRB, 48 h
Protocol: as §1, §2, §3, §4, §5, §6, §7, §8

[13] = tested on: CAKJ1 (Renal); experiment: SRB assay, CAKJ1; assay type: cell-based, human; conditions: 48 h; for TGI / GI50: CAKJ1, SRB; for CC50 / GI50: Homo sapiens; for CC50: read-out: LC50
Protocol: as §1, §2, §3, §4, §5, §6, §7, §8

Structure (SMILES)	IC50 [1] [nM]	TGI [2] [nM]	CC50 [2] [nM]	GI50 [2] [nM]	TGI [3] [nM]	CC50 [3] [nM]	GI50 [3] [nM]	CC50 [4] [nM]	GI50 [4] [nM]	TGI [4] [nM]	CC50 [5] [nM]	GI50 [5] [nM]	TGI [5] [nM]	CC50 [6] [nM]	GI50 [6] [nM]	TGI [6] [nM]	CC50 [7] [nM]	GI50 [7] [nM]	TGI [7] [nM]	TGI ([8]; SRB) [nM]	also measured
C[C@H]1O[C@@H](O[C@H]2[C@@H](O)C[C@H](O[C@H]3[C@@H](O)C[C@H](O[C@H]4CC[C@@]5(C)[C@H](CC[C@@H]6[C@@H]5C[C@@H](O)[C@]5(C)[C@@H](C7=CC(=O)OC7)CC[C@]65O)C4)O[C@@H]3C)O[C@@H]2C)C[C@H](O)[C@@H]1O [Digoxin, reference compound]	204	60	1140	< 1	90	680	< 10	> 100000	80	6500	7690	70	530	840	< 10	430	22200	< 10	2650	100	CC50 [8]: 750 nM; GI50 ([8]; SRB): 40 nM; TGI [9]: 70 nM; CC50 [9]: 360 nM; GI50 [9]: 30 nM; CC50 [10]: 300 nM; GI50 [10]: < 80 nM; IC (TGI) [10]: 100 nM; GI50 ([11]; SF-268, 48 h): < 80 nM; CC50 ([11]; SF-268, 48 h): 100 nM; IC (TGI) ([11]; SF-268, 48 h): < 80 nM; CC50 [12]: > 50000 nM; GI50 [12]: < 80 nM; IC (TGI) [12]: 700 nM; TGI [13]: 70 nM; CC50 [13]: 200 nM; GI50 [13]: < 10 nM
C[C@]12CCC(=NOC3CCNC3)CC1CCC1C2CC[C@]2(C)C(=O)CCC12 (stereo partly drawn) [Compound 56, (10S,13S)-10,13-dimethyl-3-(pyrrolidin-3-yloxyimino)tetradecahydro-1H-cyclopenta[a]phenanthren-17(2H)-one]	101	4	8.2	< 1	62.8	288	17.9	3740	40.9	225.3	668	48.5	218.2	740	74.9	341.1	170	2.9	11.4	49.1	Na+K+ ATPase inhibitory activity (in words) [1]: very potent Na+K+ ATPase inhibitors; CC50 [8]: 90.8 nM; GI50 ([8]; SRB): 9.3 nM; anti-tumor action in multidrug resistant cell line NCI-ADR-RES ([8]; SRB, cells express high levels of MDR1 and P-glycoprotein): potent anti-tumor action; TGI [9]: 22 nM; CC50 [9]: 70.6 nM; GI50 [9]: 5 nM; CC50 [10]: 936 nM; GI50 [10]: 33.2 nM; IC (TGI) [10]: 387 nM; CC50 ([11]; SF-268, 48 h): 810 nM; GI50 ([11]; SF-268, SF268, SRB, 48 h, read-out: GI50): 56.7 nM; IC (TGI) ([11]; SF-268, SF268, SRB, 48 h): 349 nM; CC50 [12]: 762 nM; GI50 [12]: 5.8 nM; IC (TGI) [12]: 70.5 nM; TGI [13]: 26.5 nM; CC50 [13]: 172 nM; GI50 [13]: < 1 nM
